Here are results for five molecules from patent US4810422A, “Bile acid derivatives, their salts and production thereof” (priority 1986, dated 1989).

For series [1], the system named is P388 Mouse leukemia cells. Nature of the series: Carcinolytic effect: inhibition of ^3 H-thymidine intake in P388 leukemia cells. The series is classed as cell-based. The settings on record: 2 hours then 1 hour with ^3 H-thymidine, vs. solvent control; for Percent inhibition against ^3 H-thymidine intake: 50 μM, 37° C. The protocol: P388 Mouse leukemia cells which were subjected to passage transplantation in CDF1 mice were suspended in RPMI1640 culture fluid containing 20 mM HEPES to a cell density of 5×10^5 cells/ml, and 1 ml each of aliquots were apportioned into test tubes. Each of the test samples was added to the suspension to a final concentration of 50 μM, and each preparation was incubated at 37° C with shaking (100 shuttles/min.). Two hours thereafter, ^3 H-thymidine was added to a final concentration of 0.25 μCi/ml, and the incubation was further carried out for 1 hour. Then the radioactivity taken in the cells was measured by a conventional method.

For a further series, the system named is male ICR mice. Nature of the series: Toxicity: single administration, life span observed for 3 weeks. The series is classed as in vivo. The protocol: Separately, 500 mg/kg of the above test compound was administered intraperitoneally to a group of eight male ICR mice, and their life spans were similarly observed for 3 weeks.

In the case of `C[C@H](CCC(=O)O)[C@H]1CC[C@H]2[C@@H]3[C@H](O)C[C@@H]4C[C@H](OC(=O)c5ccc(CN(CCCl)CCCl)cc5)CC[C@]4(C)[C@H]3C[C@H](O)[C@]12C` [Compound No. 31, 3-O-[p-(N,N-bis(2-chloroethyl)aminomethyl)benzoyl] cholic acid], the “Percent inhibition against ^3 H-thymidine intake” value (“Percent inhibition” for short) in series [1] came to 94%.
For `C[C@H](CCC(=O)O)[C@H]1CC[C@H]2[C@@H]3[C@H](O)C[C@@H]4C[C@H](OC(=O)Cc5ccc(N(CCCl)CCCl)cc5)CC[C@]4(C)[C@H]3C[C@H](O)[C@]12C` [Compound No. 2, 3-O-[p-(N,N-bis(2-chloroethyl)amino)phenylacetyl] cholic acid], the “Percent inhibition” value in series [1] was 90%.
As for `C[C@H](CCC(=O)O)[C@H]1CC[C@H]2[C@@H]3[C@H](O)C[C@@H]4C[C@H](OC(=O)CN(CCCl)CCCl)CC[C@]4(C)[C@H]3C[C@H](O)[C@]12C` [Compound No. 38, 3-O-[N,N-bis(2-chloroethyl)aminoacetyl] cholic acid], the “Percent inhibition” value in series [1] was found to be 83%. Also, in the series with male ICR mice (500 mg/kg intraperitoneal, eight male ICR mice), the “mortality, intraperitoneal” value is given as “No mortality case was observed”. For the same molecule, the “mortality, oral” value with male ICR mice (2,000 mg/kg oral once, 0.5% CMC, four male ICR mice) is “No mortality case was observed”.
Take `C[C@H](CCC(=O)O)[C@H]1CC[C@H]2[C@@H]3[C@H](O)C[C@@H]4C[C@H](O)CC[C@]4(C)[C@H]3C[C@H](O)[C@]12C` [Cholic acid, reference compound]: in series [1] (Mus musculus, P388, 37° C, read-out: Percent inhibition against ^3 H-thymidine intake), the inhibition (commonly the relative decrease from the control value, in per cent) at 50 µM worked out at 2%.
Take `COc1ccc(COC(=O)CC[C@@H](C)[C@H]2CC[C@H]3[C@@H]4[C@H](O)C[C@@H]5C[C@H](OC(=O)c6ccc(OC(=O)N(CCCl)CCCl)cc6)CC[C@]5(C)[C@H]4C[C@H](O)[C@]23C)cc1` [Compound No. 52, p-Methoxybenzyl 3-O-[p-(N,N-bis(2-chloroethyl)aminocarbonyloxy)benzoyl] cholate]: the “Percent inhibition” value in series [1] was 88%.
